Starred links: 1 amine or outer side, 2 acyl side, 3 side chain; linkers in the order of their positions; H or OH if unused. Non-standard residues stand in square brackets, D forms with d. No end group written: not given here. azaTyr = O=C(N(Cc1ccc(O)cc1)N[*:1])[*:2]; azaPhe = O=C(N(Cc1ccccc1)N[*:1])[*:2]; azaLeu = CC(C)CN(N[*:1])C(=O)[*:2]; azaGly = NNC(=O)O

Consider 1 substance from patent publication US6664372B1, “Azatide peptidomimetics” (The Scripps Research Institute, priority 1996, dated 2003).

This assay relates to anti-β-endorphin monoclonal antibody 3-E7 (IgG 3-E7). As to the kind of experiment: Azatide (16) competition ELISA for anti-β-endorphin monoclonal antibody. In kind it is binding, mouse. The conditions noted are these: at 1 mM, plate coated with Tyr-Gly-Gly-Phe-Leu-BSA conjugate. For orientation: ELISA stands for enzyme-linked immunosorbent assay.

Take “Tyr^a-Gly^a-Gly^a-Phe^a-Leu^a.2CP3COOH ([azaTyr][azaGly][azaGly][azaPhe][azaLeu]; also: salt/adduct .2CP3COOH) [compound 16, Leu-enkephalin azatide mimetic; every α-carbon replaced by nitrogen]”: the “competition with the natural peptide for 3-E7 (competition ELISA)” value was “non-ligand”. Besides, the “competition with the natural peptide for 3-E7 (competition ELISA)” value (listed as azatide pentamer) is “no propensity to compete”.
